According to paper PMC10472861, “Potent inhibition of human tyrosinase inhibitor by verproside from the whole plant of Pseudolysimachion rotundum var. subintegrum” (Journal of Enzyme Inhibition and Medicinal Chemistry, 2023):
Entries after “also recorded” stand apart in the source; their conditions may differ.

Key:
[1] = target: T1, Mushroom tyrosinase (mTyr) (Agaricus bisporus, UniProt C7FF04); assay: Mushroom tyrosinase inhibition, L-DOPA substrate (diphenolase); format: biochemical
T1 construct: purchased Sigma Chemical Co. T3824-50KU
Target sequence in this assay (C7FF04 1-392 limits assumed): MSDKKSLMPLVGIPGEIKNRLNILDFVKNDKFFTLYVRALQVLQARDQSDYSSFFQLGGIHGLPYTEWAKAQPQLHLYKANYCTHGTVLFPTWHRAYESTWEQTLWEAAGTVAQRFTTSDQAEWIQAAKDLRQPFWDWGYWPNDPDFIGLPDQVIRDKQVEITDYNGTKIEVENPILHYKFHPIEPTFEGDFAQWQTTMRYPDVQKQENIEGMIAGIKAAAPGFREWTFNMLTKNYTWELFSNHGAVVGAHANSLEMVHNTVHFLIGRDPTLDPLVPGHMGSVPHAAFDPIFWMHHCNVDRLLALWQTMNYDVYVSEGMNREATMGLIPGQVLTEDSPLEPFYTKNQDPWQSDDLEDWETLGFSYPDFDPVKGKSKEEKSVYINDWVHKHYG

mushroom tyrosinase [2] = target: T2, mushroom tyrosinase (Agaricus bisporus, UniProt C7FF04); assay: Affinity-based ultrafiltration UPLC-QTOF-MS binding experiment; conditions: for after tyrosinase (area): UPLC-QTOF-MS peak area in 1000 ppm extract after incubation with mTyr; for Relative metabolite intensity upon treatment with mTyr: extract treated with mTyr, 15 min preincubation
T2 construct: purchased Sigma Chemical Co. T3824-50KU
Procedure: (§1) Affinity-based ultrafiltration was performed as previously described by Zuo et al. and Wang et al.[15]^,[19]^,[23]. First, […] of 0.25 M phosphate buffer (pH 6.8) with 10% glycerol was added to 13 μL of mushroom tyrosinase (144 U in the same phosphate buffer solution) and 100 μL of 1000 mg/mL extract (the test solution was consistently 3.3%). The final concentration of the extract was adjusted to 1000 ppm. The mixture was incubated for 15 or 50 min at 37 °C on a plate shaker. Then, the sample was centrifuged at 13,000 rpm for 20 min, and the supernatant was collected for analysis. The supernatant solution was filtered through a membrane (PTFE 0.2 μm, hydrophobic, Advantec, Japan), and 2 μL of each solution was injected for UPLC-PDA-QTOF-MS analysis.
(§2) The compounds from the P. rotundum var. subintegrum extract were analysed by UPLC-PDA-ESI-QTOF-MS. […] MS was performed in negative ion mode ([M − H]^−). N2 was used as the desolvation gas, the desolvation temperature was set to 350 °C at a flow rate of 400 L/h with a source temperature of 100 °C. The capillary and cone voltages were set to 2300 and 50 V, respectively. The data for each sample were collected with a scan time of 0.25 s and a 0.01 s interscan delay. Exact MS, MS/MS, and elemental analysis were confirmed using MassLynx software incorporated into the Waters instrument.

mushroom tyrosinase [3] = assay: as above; conditions: UPLC-QTOF-MS peak area in 1000 ppm extract, not exposed to enzyme
Procedure: as §1, §2

[4] = target: T1, Mushroom tyrosinase (mTyr); assay: Mushroom tyrosinase inhibition, L-tyrosine substrate (monophenolase); format: biochemical; conditions: for inhibition at 100 µM: read-out: Mushroom Tyrosinase L-Tyrosine 100 µM inhibition (%); for Type of inhibition (monophenolase): L-tyrosine, Lineweaver-Burk and Dixon plots
Target sequence in this assay (C7FF04 1-392): as the sequence (C7FF04 1-392 limits assumed) above

B16F10 cells = assay: CCK-8 cell viability assay, B16F10; format: cell-based, murine; conditions: 48 h
Procedure: (§3) The B16F10 melanoma and Melan-A normal murine melanocyte cells were purchased from the American Type Culture Collection (ATCC), respectively. The B16F10 cells were cultured in complete Dulbecco's Modified Eagle's Medium (DMEM high glucose, Gibco) supplemented with 10% (v/v) Fetal Bovine Serum (FBS, Gibco, USA), 100 U/mL penicillin, 50 μg/ml streptomycin. The Melan-A cells were cultured in RPMI -1640 medium supplemented with 10% FBS, 2 mM L -glutamine, 200 nM 12 -o-tetradecanoyl phorbol -13-acetate (Sigma, USA), 100 U/mL penicillin, 50 μ g/ml streptomycin, and grown in a humidified atmosphere containing 5% CO 2 in ai r at 37°C.
(§4) The cells were seeded in 96 -well plates at a density of 5 × 10^3 cells/well in cultured medium. The cells were treated with the corresponding concentrations of verproside for 48 h. Cell viability was measured in triplicate using a Cell Counting Kit -8 (CCK -8; Dojindo Molecular Technologies, Rockville, MD, USA) . Absorbance was determined using an Epoch microplate reader (BioTek Instruments, Winooski, VT, USA, #CK04) and calculated as a relative percentage (%) of the control […]
(§5) Figure S4 . The cell viability by verproside in B16F10 and Melna -A cells. (A) CCK -8 assays in B16F10 cells. (B) CCK -8 assays in Melna -A cells.
(§6) (1 picture or pasted object on this page, not shown here)

[5] = target: T3, recombinant human tyrosinase (hTyr) (Homo sapiens, UniProt P14679); assay: Human tyrosinase inhibition, L-tyrosine substrate; format: biochemical
T3 construct: His-tag; purchased Enzo Life Sciences BML-SE535-0100
T3 sequence (P14679 19-529): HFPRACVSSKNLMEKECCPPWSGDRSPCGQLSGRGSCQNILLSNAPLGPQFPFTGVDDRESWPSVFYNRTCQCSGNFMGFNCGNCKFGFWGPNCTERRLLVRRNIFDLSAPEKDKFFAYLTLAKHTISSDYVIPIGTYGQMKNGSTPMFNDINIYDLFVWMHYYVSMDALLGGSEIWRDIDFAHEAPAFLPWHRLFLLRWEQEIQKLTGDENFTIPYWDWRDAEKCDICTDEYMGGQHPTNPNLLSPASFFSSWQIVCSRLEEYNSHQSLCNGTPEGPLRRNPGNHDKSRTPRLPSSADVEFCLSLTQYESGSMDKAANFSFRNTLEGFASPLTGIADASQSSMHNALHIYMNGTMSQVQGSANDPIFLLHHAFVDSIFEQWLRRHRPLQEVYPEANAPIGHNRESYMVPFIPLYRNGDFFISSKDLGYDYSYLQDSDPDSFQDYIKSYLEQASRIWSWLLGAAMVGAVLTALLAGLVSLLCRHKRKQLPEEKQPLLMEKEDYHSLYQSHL

mushroom tyrosinase [6] = target: T2, mushroom tyrosinase; assay: Affinity-based time-dependent assay (slow-binding kinetics); format: biochemical; conditions: for Time dependence of inhibition: mushroom tyrosinase, L-tyrosine
Procedure: Time-dependent assays were carried out using 144 U of mushroom tyrosinase and L-tyrosine as the substrate in 0.25 M phosphate buffer (pH 6.8) at 30 °C. […] The data were analysed using a nonlinear regression program [SigmaPlot (SPCC Inc., Chicago, IL)] to give the individual parameters for each curve; vi (initial velocity), vs (steady–state velocity), kobs (apparent first–order rate constant for the transition from vi to vs), A (intensity), A0 (included to correct any possible deviation in the baseline), and Ki^app (apparent Ki) according to Equations. 2–4[26–28]: (2) A=vst + (vi–vs)[1 – exp (–kobst)]/kobs (3) v/v0= exp(−kobst) (4) kobs=k6+ [(k5 × [I])/(Ki^app + [I])]

Melan-A cells = assay: CCK-8 cell viability assay, Melan-A; format: cell-based, murine; conditions: 48 h
Procedure: as §3, §4, §5, §6

[7] = target: T3, recombinant human tyrosinase (hTyr); assay: Human tyrosinase inhibition, L-DOPA substrate; format: biochemical
Procedure: The enzymatic activities of tyrosinase were tested in vitro with the substrates and inhibitors known to interact with mushroom and mammalian tyrosinases (http://www.brenda-enzymes.info). The Michaelis-Menten constant (Km) of proteins was calculated from Lineweaver-Burk plots for 1/V0 versus 1/[substrate]. Mushroom tyrosinase (mTyr, EC 1.14.18.1, Sigma Chemical Co., T3824-50KU) was used as described previously[9] with some modifications with either 3,4-Dihydroxy-L-phenylalanine (L-DOPA, D9628-5G) or L-tyrosine (T3754-50G) as the substrate. In the spectrophotometric experiments, the initial velocity (vi) of enzymatic activity was monitored by observing dopachrome formation at 475 nm with a UV–vis spectrophotometer (SpectraMax M4, Molecular Devices, Sunnyvale, CA, USA) at 37 °C. The reaction was performed in a 96-well plate. All samples were first dissolved in dimethyl sulfoxide (DMSO) at a concentration of 2 mM. […] The activity of recombinant human tyrosinas (hTyr, His-tag, Enzo® Life Sciences, NY, USA, Cat. No. BML-SE535-0100) was determined using L-DOPA as a substrate, and the procedure involved a previously described absorption assay. […] The reaction was incubated for 10 min at 37 °C and was monitored at 475 nm for dopachrome formation on a SpectraMax M4 multimode detection platform (Molecular Devices). […]

[8] = mTyr, L-DOPA substrate, read-out: Mushroom Tyrosinase L-DOPA IC50
[9] = mTyr, L-tyrosine substrate (monophenolase), read-out: Mushroom Tyrosinase L-Tyrosine IC50

T2 sequence (C7FF04 1-392): as the sequence (C7FF04 1-392 limits assumed) above

SMILES | IC50 [1, 8] [µM] | after tyrosinase (area) (mushroom tyrosinase [2]) | Control (area) (mushroom tyrosinase [3]) | IC50 [4, 9] [µM] | inhibition at 100 µM [4] [%] | Relative metabolite intensity upon treatment with mTyr (mushroom tyrosinase [2]) | further results
COc1ccc(C(=O)OC2C3C=COC(OC4OC(CO)C(O)C(O)C4O)C3C3(CO)OC23)cc1OC (centres unmarked) [6-O-Veratroyl catalpol (9), 6-O-Veratroyl catalpol] | > 200 | 11932 | 15756 | > 200 | 6.1 |  | 
O=C(O[C@H]1[C@@H]2C=CO[C@@H](O[C@@H]3O[C@H](CO)[C@@H](O)[C@H](O)[C@H]3O)[C@@H]2[C@@]2(CO)O[C@@H]12)c1ccc(O)cc1 [Catalposide (3), Catalposide] | > 200 | 21250 | 26121 | > 200 | 9.9 |  | 
COc1ccc(C(=O)OC2C3C=COC(OC4OC(CO)C(O)C(O)C4O)C3C3(CO)OC23)cc1O (centres unmarked) [Isovanillyl catapol (7), Isovanillyl catapol] | > 200 | 8093 | 12844 | > 200 | 10.1 |  | 
O=C(OC1C2C=COC(OC3OC(CO)C(O)C(O)C3O)C2C(O)(CO)C1Cl)c1ccc(O)c(O)c1 (centres unmarked) [Longifolioside A (2), Longifolioside A] | > 200 | 3852 | 10677 | 193 ± 10.5 | 36 | significantly reduced | 
COc1ccc(/C=C/C(=O)O[C@H]2[C@@H]3C=CO[C@@H](O[C@@H]4O[C@H](CO)[C@@H](O)[C@H](O)[C@H]4O)[C@@H]3[C@@]3(CO)O[C@@H]23)cc1O [Minecoside (8), Minecoside] | > 200 | 465 | 976 | 132 ± 8.3 | 41.7 |  | 
COc1cc(C(=O)O[C@H]2[C@@H]3C=CO[C@@H](O[C@@H]4O[C@H](CO)[C@@H](O)[C@H](O)[C@H]4O)[C@@H]3[C@@]3(CO)O[C@@H]23)ccc1O [Picroside II (5), Picroside II] |  | 12194 | 17798 |  | 5.3 |  | IC50 [1]: > 200 µM; IC50 [4]: > 200 µM
O=C(OC1C2CC3OCC(O)(C1Cl)C2C(OC1OC(CO)C(O)C(O)C1O)O3)c1ccc(O)c(O)c1 (centres unmarked) [Piscroside C (6), Piscroside C] | > 200 | 22171 | 44999 | > 200 | 6.7 |  | 
O=C(/C=C/c1ccc(O)c(O)c1)O[C@@H]1C2C=CO[C@H](O[C@@H]3O[C@H](CO)[C@@H](O)[C@H](O)[C@H]3O)C2[C@]2(CO)O[C@H]12 (some centres unmarked) [Verminoside (4), Verminoside] | > 200 | 2886 | 16481 | > 200 | 8.9 | significantly reduced | 
O=C(OC1C2C=COC(OC3OC(CO)C(O)C(O)C3O)C2C2(CO)OC12)c1ccc(O)c(O)c1 (centres unmarked) [Verproside (1), Verproside] | 177 ± 33.1 | 61907 | 112306 | 31.2 ± 2.1 | 98.4 | significantly reduced | Cell viability (B16F10 cells): did not significantly affect cell viability; IC50 ([5]; hTyr, L-tyrosine substrate): 197 µM; Efficacy relative to positive control kojic acid in hTyr ([5]; ratio of hTyr IC50 values, kojic acid / verproside): 5.6 fold; Type of inhibition (diphenolase) ([1]; mTyr diphenolase activity): competitive inhibition; k5 (mushroom tyrosinase [6]; fit of kobs to Equation (4)): 0.04496 s⁻¹; k6 (mushroom tyrosinase [6]; fit of kobs to Equation (4)): 0.00001103 s⁻¹; Ki (mushroom tyrosinase [6]; fit of kobs to Equation (4), read-out: Ki^app (apparent Ki)): 2400 µM; Time dependence of inhibition (mushroom tyrosinase [6]; listed as verproside): time-dependent; also recorded: slow-binding; Time dependence of inhibition (mushroom tyrosinase [6]; listed as verproside (1)): time-dependent inhibition; Cell viability (Melan-A cells): did not significantly affect cell viability; IC50 [7]: 843 µM; Ki ([4]; mTyr, L-tyrosine (monophenolase), read-out: Ki (inhibition constant)): 5.1 µM; Type of inhibition (monophenolase) ([4]; mTyr): competitive inhibition; Type of inhibition (monophenolase) ([4]; mTyr, listed as verproside): competitive
